Experimental data as given in PubChem BioAssay (NCI).
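The compound was tested at five concentrations on cells cultured in 96-well plates, with a 48-hour exposure period. At the GI50, growth is halved. TGI: total growth inhibition.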

Columns and labels:
Assay in all cases: growth of human tumour cells (NCI), 48 h
SK-OV-3 ovarian = tested on: SK-OV-3 ovarian
A498 renal = tested on: A498 renal
DU-145 prostate = tested on: DU-145 prostate
U251 CNS = tested on: U251 CNS
SK-MEL-2 melanoma = tested on: SK-MEL-2 melanoma
HCT-15 colon = tested on: HCT-15 colon
ACHN renal = tested on: ACHN renal
RPMI-8226 leukemia = tested on: RPMI-8226 leukemia
A549 NSCLC = tested on: A549 NSCLC
MDA-MB-435 = tested on: MDA-MB-435

Structure (SMILES)	GI50 (SK-OV-3 ovarian)	TGI (SK-OV-3 ovarian)	GI50 (A498 renal)	TGI (A498 renal)	GI50 (DU-145 prostate)	TGI (DU-145 prostate)	GI50 (U251 CNS)	TGI (U251 CNS)	GI50 (SK-MEL-2 melanoma)	TGI (SK-MEL-2 melanoma)	GI50 (HCT-15 colon)	TGI (HCT-15 colon)	GI50 (ACHN renal)	TGI (ACHN renal)	GI50 (RPMI-8226 leukemia)	TGI (RPMI-8226 leukemia)	GI50 (A549 NSCLC)	TGI (A549 NSCLC)	GI50 (MDA-MB-435)	TGI (MDA-MB-435)
O=c1c(Oc2ccc(F)cc2F)cc2cnc(NC3CCOCC3)nc2n1C1CC1	> 25 µM	> 25 µM	2.72 µM	> 25 µM	> 25 µM	> 25 µM	> 25 µM	> 25 µM	> 25 µM	> 25 µM	> 25 µM	> 25 µM	> 25 µM	> 25 µM	> 25 µM	> 25 µM	> 25 µM	> 25 µM	> 25 µM	> 25 µM
COc1cc2c3c(n(CCCN)c(=O)c2cc1OC)-c1ccc(N)cc1C3=O	2.52 µM	17.9 µM	1.93 µM	9.78 µM	1.64 µM	9.03 µM	0.575 µM	6.84 µM	7.77 µM	29.8 µM	24.4 µM	> 100 µM	5.9 µM	37.8 µM	19.5 µM	49.8 µM	12.9 µM	44.3 µM	3.06 µM	17 µM
COc1ccc(-n2c(=O)c3ccccc3n(Cc3ccc(C(=O)NO)cc3)c2=O)cc1	2.45 µM	6.69 µM	1.09 µM	3.25 µM	3.24 µM	> 100 µM	1.78 µM	3.58 µM	2.31 µM	7.13 µM	3.22 µM	16.2 µM	3.23 µM	13.5 µM	2.42 µM	12.6 µM	4.1 µM	16.3 µM	1.74 µM	3.56 µM
OCc1ccc(N2CCc3ccc(F)cc3C2)cc1Cl	2.71 µM	13.6 µM	0.0173 µM	0.0751 µM	7.06 µM	21.2 µM	0.124 µM	8.57 µM	0.226 µM	8.79 µM	2.82 µM	18.8 µM	10.4 µM	23 µM	0.263 µM	10.7 µM	0.516 µM	19.8 µM	8.69 µM	22 µM
O=C(O)CSc1cc(NS(=O)(=O)c2ccc(Br)cc2)c2ccccc2c1O	18.7 µM	33.2 µM	18.3 µM	34.7 µM	16.5 µM	30.1 µM	15 µM	30.9 µM	9.92 µM	28.6 µM	13.3 µM	30.7 µM	12.8 µM	26.6 µM	5.33 µM	29.9 µM	22.8 µM	42.6 µM	1.88 µM	3.41 µM
COc1ccccc1CNCCCN1C(=O)c2ccc3c4c(ccc(c24)C1=O)C(=O)N(CCCNCc1ccccc1OC)C3=O	0.352 µM	1 µM	1.21 µM	2.5 µM	0.163 µM	0.309 µM	0.164 µM	0.447 µM	0.203 µM	0.427 µM	0.191 µM	0.465 µM	0.17 µM	0.555 µM	0.274 µM	0.799 µM	0.2 µM	0.46 µM	0.179 µM	0.349 µM
C/C(=C\c1csc(C)n1)[C@@H]1C[C@@H]2O[C@]2(C)CCC[C@H](C)[C@H](O)[C@@H](C)C(=O)C(C)(C)[C@@H](O)CC(=O)N1	0.00477 µM	0.0595 µM	0.000104 µM	0.000215 µM	0.000166 µM	0.000254 µM	0.000147 µM	0.000391 µM	< 1e-05 µM	< 1e-05 µM	0.000152 µM	0.000344 µM	0.000324 µM	0.000478 µM	< 1e-05 µM	< 1e-05 µM	9.28e-05 µM	0.000294 µM	6.55e-05 µM	0.000143 µM
CNCc1cccc2c1OCCOCCOCCNS(=O)(=O)c1ccc(cc1)-c1cnc(N)c(n1)C(=O)N2	0.543 µM	8.01 µM	1.36 µM	3.79 µM	1.24 µM	3.36 µM	0.772 µM	2.23 µM	1.76 µM	4.41 µM	4.86 µM	18.9 µM	2.78 µM	11.7 µM	1.73 µM	4.26 µM	1.58 µM	4.82 µM	1.35 µM	2.74 µM
CC(=O)O[C@H]([C@H](OC(C)=O)[C@H](C)OC(C)=O)[C@@H](/C=C/[C@H]1CC=CC(=O)O1)OC(C)=O	> 100 µM	> 100 µM	41.4 µM	> 100 µM	38.2 µM	> 100 µM	> 100 µM	> 100 µM	36.4 µM	> 100 µM	44.9 µM	> 100 µM	> 100 µM	> 100 µM	26.3 µM	89.8 µM	> 100 µM	> 100 µM	41.2 µM	> 100 µM
O=C1c2ccccc2N1C(=O)c1ccccc1[N+](=O)[O-]		> 100 µM		> 100 µM		> 100 µM		> 100 µM		> 100 µM		> 100 µM		> 100 µM		> 100 µM		> 100 µM		> 100 µM
N#CC1=C(N)Oc2c(ccc3ccccc23)C1c1cc2ccccc2n2nnnc12 (stereo not given)	2.05 µM	> 100 µM	0.783 µM	> 100 µM	2.77 µM	> 100 µM	0.748 µM	> 100 µM	0.616 µM	6.84 µM	0.524 µM	> 100 µM	1.71 µM	> 100 µM	0.927 µM	> 100 µM	3.02 µM	> 100 µM	0.3 µM	1.01 µM
COc1cc2c(cc1OCCN1CCN(CCN3C(=O)c4cccc5cccc(c45)C3=O)CC1)N=C[C@@H]1CCCN1C2=O	27.8 µM	46.5 µM	20.5 µM	40.4 µM	16.9 µM	30.6 µM	16.1 µM	34.1 µM	24.6 µM	51.1 µM	15.8 µM	31.1 µM	17.2 µM	31.5 µM	17.1 µM	34.8 µM	18.7 µM	47.3 µM	23.4 µM	48.7 µM
O=C1NC(c2ccccc2Cl)Nc2ccccc21 (stereo not given)		> 100 µM		> 100 µM		> 100 µM		> 69.7 µM		48.7 µM		> 100 µM		> 100 µM		62.8 µM		> 100 µM		4.76 µM
Oc1c(Br)cc(Cl)cc1C(c1cc(Cl)cc(Br)c1O)C(Cl)(Cl)Cl	2.94 µM	8.93 µM	1.69 µM	8.24 µM	4.74 µM	16.2 µM	2.18 µM	10.9 µM	2.31 µM	5.08 µM	1.39 µM	9.06 µM	3.06 µM	9.81 µM	0.961 µM	6.47 µM	3.13 µM	11.7 µM	2.94 µM	10.1 µM
COc1cc2c(cc1C)NC(=O)/C2=C\c1ccc(Oc2ccccc2)cc1	17 µM	31.4 µM	13.9 µM	26.8 µM	13.2 µM	26 µM	12.8 µM	25.4 µM	17 µM	40.9 µM	12.1 µM	24.5 µM	15.6 µM	29 µM	12.1 µM	31.6 µM	14.7 µM	33.4 µM	17.8 µM	38.1 µM
O=S(=O)(Nc1ccccc1)c1ccc(C2CC3(Cl)C(Cl)=C(Cl)C2(Cl)C3(Cl)Cl)cc1 (stereo not given)	3.45 µM	10.1 µM	2.32 µM	6.29 µM	3.58 µM	10.1 µM	2.25 µM	5.52 µM	2.23 µM	4.16 µM	3.13 µM	10.2 µM	3.37 µM	10.5 µM	2.53 µM	7.28 µM	3.11 µM	11 µM	2.34 µM	5.44 µM
COc1ccc([C@@H]2[C@@H](Oc3ccccc3)C(=O)N2c2cc(OC)c(OC)c(OC)c2)cc1F	0.38 µM	> 100 µM	0.0238 µM	0.0983 µM	0.378 µM	> 100 µM	0.185 µM	> 100 µM	0.447 µM	> 100 µM	0.155 µM	> 100 µM	0.0699 µM	> 100 µM	0.207 µM	5.64 µM	0.209 µM	> 100 µM	0.0264 µM	0.076 µM
COc1cc(/C=C/C(=O)c2nc3cc(F)ccc3nc2C)cc(OC)c1OC	> 100 µM	> 100 µM	5.78 µM	> 100 µM	3.09 µM	> 100 µM	3.54 µM	> 100 µM	34.5 µM	> 100 µM	2.94 µM	> 100 µM	10.3 µM	> 100 µM	0.327 µM	3.07 µM	7.37 µM	> 100 µM	3.55 µM	> 100 µM
